Data reported in publication PMC1968247 (British Journal of Cancer, 1993).
Like-named read-outs stand apart in the source and are kept apart here.

How the values were obtained:
bone marrow = details: 24 h
Description: (§1) Br. J. Cancer (1993), 67, 441 446 t? […] Bibby Clinical Oncology Unit, University of Bradford, West Yorkshire, BD7 JDP, UK. […] In vivo anti-tumour activity was examined against three transplantable adenocarcinomas of the mouse colon and in vivo bone marrow toxicity was assessed using a spleen colony forming unit assay. The pharmacokinetic behaviour of the drug in vivo and drug stability in vitro was analysed by gas chromatography with electron capture detection. […] Clinical responses to cytotoxic agents have been largely restricted to the haematological malignancies while the majority of human solid tumours have remained refractory to chemotherapy (Marsoni et al., 1987). […] However, their clinical usefulness has been limited by non-selective host toxicity, particularly myelosuppres- sion. The chloroethylnitrosoureas decompose spontaneously in aqueous solution to generate reactive intermediates that are capable of alkylating and carbamoylating nucleophilic targets (Cheng et al., 1972). Alkylation reactions consist of chloroethylations and hydroxyethylations of DNA (Tong et al., 1982). Chloroethylation of 06-guanine with subsequent cross-link formation is considered to be the most important cytotoxic reaction (Lown et al., 1978) while hydroxyethyla- tion reactions are thought to be responsible for their mutagenic and carcinogenic effects (Pelfrene et al., 1976; Swenson et al., 1979). […] In the search for other types of compound that would chloroethylate DNA, a series of 2-haloethylsulphonates was synthesised (Shealy et al., 1983). […] Recently, the NCI has introduced a new disease-orientated screening programme based on the assessment of the in vitro cytotoxicity of a panel of cell lines representing the common clinical forms of human cancers using a colorimetric assay (Boyd, 1989). […] One reason for this discrepancy is that the in vitro tests ignore the potential role played by the pharmacokinetic behaviour and bioavailability of a drug in determining tumour responses in vivo. […] It has been used extensively as part of the pre-clinical evaluation of new anti-cancer agents within the Screening and Pharmacology Group of the EORTC (Bibby et al., 1988b). The feasibility of performing minimal toxicity studies in conjunction with anti-tumour studies has been described (Bibby et al., 1988b). […] Correspondence: A.M. Matthew. Received 6 December 1991; and in revised form 13 October 1992. Br. J. Cancer (1993), 67, 441-446 '?" Macmillan Press Ltd., 1993 442 A.M. MATIHEW et al. ethylating agents with improved therapeutic indices. The assessment of stem cell survival has been recommended to study irreversible cytotoxic bone marrow injury (Schofield, 1986) and this can be performed readily in mice using a spleen colony forming unit assay. […] In vitro activity was assessed against a panel of established murine and human tumour cell lines while in vivo anti-tumour responses were evaluated against an ascitic tumour, MAC 15A, and two solid subcutaneous (sc) tumours, MAC 13 and MAC 26. MAC 13 is relatively nitrosourea-sensitive due to a low level of the repair enzyme 06-alkylguanine-DNA alkyltransferase while MAC 26 is relatively nitrosourea-resistant due to a high repair enzyme level (Lunn et al., 1989). In vivo bone marrow toxicity and pharmacokinetic studies and in vitro drug stability studies were performed in conjunction with the anti-tumour studies. […] Chlorozotocin was dissolved in 10% dimethylsulphoxide (DMSO)/arachis oil. Drug solutions were prepared at an appropriate concentration for the desired in vivo dose to be administered in 0.1 ml per 10 g body weight by intra- peritoneal (ip) or intravenous (iv) injection and for the desired final concentration in vitro to be achieved upon a 1 in 10 dilution. […] Chemosensitivity testing In vitro chemosensitivity was assessed using a modified micro-tetrazolium (MTT) assay (Twenty- man & Luscombe, 1987).

MAC 26 tumours = details: for Survivors: MAC 26 bearers
Description: as §1

MAC 15A ascites tumour = test: Anti-tumour activity against MAC 15A (median survival time); assay type: in vivo, NMRI mice; details: 30 mg kg-1 ip
Description: as §1

MAC 13 tumours = test: Anti-tumour activity against MAC 13 (tumour weight); assay type: in vivo, NMRI mice; details: 30 mg kg-1 ip
Description: as §1

[1] = Maximum tolerated dose, full dose range to the point of toxicity; details: ip, mice
Description: Br. J. Cancer (1993), 67, 441 446 t? […] Bibby Clinical Oncology Unit, University of Bradford, West Yorkshire, BD7 JDP, UK. […] In vivo anti-tumour activity was examined against three transplantable adenocarcinomas of the mouse colon and in vivo bone marrow toxicity was assessed using a spleen colony forming unit assay. The pharmacokinetic behaviour of the drug in vivo and drug stability in vitro was analysed by gas chromatography with electron capture detection. […] Clinical responses to cytotoxic agents have been largely restricted to the haematological malignancies while the majority of human solid tumours have remained refractory to chemotherapy (Marsoni et al., 1987). […] However, their clinical usefulness has been limited by non-selective host toxicity, particularly myelosuppres- sion. The chloroethylnitrosoureas decompose spontaneously in aqueous solution to generate reactive intermediates that are capable of alkylating and carbamoylating nucleophilic targets (Cheng et al., 1972). Alkylation reactions consist of chloroethylations and hydroxyethylations of DNA (Tong et al., 1982). Chloroethylation of 06-guanine with subsequent cross-link formation is considered to be the most important cytotoxic reaction (Lown et al., 1978) while hydroxyethyla- tion reactions are thought to be responsible for their mutagenic and carcinogenic effects (Pelfrene et al., 1976; Swenson et al., 1979). […] The assessment of stem cell survival has been recommended to study irreversible cytotoxic bone marrow injury (Schofield, 1986) and this can be performed readily in mice using a spleen colony forming unit assay. […] In vitro activity was assessed against a panel of established murine and human tumour cell lines while in vivo anti-tumour responses were evaluated against an ascitic tumour, MAC 15A, and two solid subcutaneous (sc) tumours, MAC 13 and MAC 26. […] Chemosensitivity testing In vitro chemosensitivity was assessed using a modified micro-tetrazolium (MTT) assay (Twenty- man & Luscombe, 1987).

`CN(C)S(=O)(=O)CCNC(=O)N(CCCl)N=O` [TCNU, 1-(2-chloroethyl)-3-[2-(dimethylaminosulphonyl)ethyl]-I -nitro-sourea] showed a Survival fraction (bone marrow; 5 mg kg-1 ip) of 0.61, a Survival fraction (bone marrow; 10 mg kg-1 ip) of 0.20 and a Survival fraction (bone marrow; 30 mg kg-1 ip) of 0. For the same compound, the No. colonies observed (bone marrow; 30 mg kg-1 ip, mean, SD, n = 6) was 0, the Tumour growth delay (MAC 26 tumours; MAC 26, 30 mg kg-1 ip) was 11.6 days and the Survivors (MAC 26 tumours; 30 mg kg-1 ip) was 10/10. For the same compound, the Survivors (MAC 26 tumours; 50 mg kg-1 ip) was 0/5, the T/C% (MAC 15A ascites tumour) was 200% and the “% Tumour weight inhibition” value (MAC 13 tumours) was 91.3%. The Maximum tolerated dose [1] was 30 mg kg-'.
